Measured values taken from ChEMBL document CHEMBL4837266, “Ugi Reaction Synthesis of Oxindole-Lactam Hybrids as Selective Butyrylcholinesterase Inhibitors” (ACS Med Chem Lett, 2021).

What was measured:
Cholinesterase [1] = target: T1, Cholinesterase (Equus caballus, UniProt P81908); experiment: Inhibition of equine serum BuChE using S-butyrylthiocholine iodide as a substrate measured for 125 secs by DNTB reagent based Ellman's method; type: cell-free
Acetylcholinesterase [2] = target: T2, Acetylcholinesterase (Electrophorus electricus, UniProt O42275); experiment: Inhibition of electric eel AChE using […] as a substrate by Cornish-Bowden plot analysis
Cholinesterase [3] = target: T1, Cholinesterase; experiment: Mixed type inhibition of equine serum BuChE using S-butyrylthiocholine iodide as a substrate by Cornish-Bowden plot analysis; type: cell-free
[4] = target: T3, Amine oxidase [flavin-containing] B (Homo sapiens, UniProt P27338); experiment: Inhibition of recombinant MAO-B (unknown origin) assessed as reduction in 4-hydroxyquinoline level using kynuramine as a substrate at 1 uM incubated for 20 mins by discontinuous fluorimetric assay relative to control; details: read-out: INH
T3 sequence (P27338 whole entry): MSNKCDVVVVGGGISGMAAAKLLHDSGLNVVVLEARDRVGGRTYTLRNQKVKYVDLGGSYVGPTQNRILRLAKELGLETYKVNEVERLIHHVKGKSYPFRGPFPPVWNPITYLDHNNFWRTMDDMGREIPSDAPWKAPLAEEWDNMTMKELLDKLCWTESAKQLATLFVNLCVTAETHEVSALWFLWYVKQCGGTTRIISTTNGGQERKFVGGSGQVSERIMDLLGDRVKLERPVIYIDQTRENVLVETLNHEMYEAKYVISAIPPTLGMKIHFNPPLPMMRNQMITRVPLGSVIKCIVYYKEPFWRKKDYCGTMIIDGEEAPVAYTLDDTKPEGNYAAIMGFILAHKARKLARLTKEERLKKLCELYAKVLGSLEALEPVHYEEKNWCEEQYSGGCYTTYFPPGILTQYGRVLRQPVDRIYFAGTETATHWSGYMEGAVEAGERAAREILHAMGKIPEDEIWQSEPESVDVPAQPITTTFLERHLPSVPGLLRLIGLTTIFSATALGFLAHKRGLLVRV

[5] = target: T4, Amine oxidase [flavin-containing] A (Homo sapiens, UniProt P21397); experiment: Inhibition of recombinant MAO-A (unknown origin) assessed as reduction in 4-hydroxyquinoline level using kynuramine as a substrate at 1 uM incubated for 20 mins by discontinuous fluorimetric assay relative to control
T4 sequence (P21397 whole entry): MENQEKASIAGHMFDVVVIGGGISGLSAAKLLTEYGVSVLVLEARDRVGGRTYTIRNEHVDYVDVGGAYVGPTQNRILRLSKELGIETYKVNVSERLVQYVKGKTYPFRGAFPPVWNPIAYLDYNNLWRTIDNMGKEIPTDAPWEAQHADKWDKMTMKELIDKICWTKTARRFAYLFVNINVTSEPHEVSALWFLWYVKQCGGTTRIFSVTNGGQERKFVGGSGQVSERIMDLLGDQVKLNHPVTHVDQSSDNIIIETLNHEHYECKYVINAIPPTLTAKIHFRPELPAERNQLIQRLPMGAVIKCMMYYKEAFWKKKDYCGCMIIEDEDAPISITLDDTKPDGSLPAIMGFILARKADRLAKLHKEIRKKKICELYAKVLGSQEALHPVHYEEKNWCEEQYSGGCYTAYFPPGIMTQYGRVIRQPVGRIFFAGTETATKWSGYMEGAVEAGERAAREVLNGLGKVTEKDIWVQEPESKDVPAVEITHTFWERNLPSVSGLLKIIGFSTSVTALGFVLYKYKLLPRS

Acetylcholinesterase [6] = target: T2, Acetylcholinesterase; experiment: Inhibition of electric eel AChE using […] as a substrate measured for 125 secs by DNTB reagent based Ellman's method

T2 sequence (O42275 whole entry): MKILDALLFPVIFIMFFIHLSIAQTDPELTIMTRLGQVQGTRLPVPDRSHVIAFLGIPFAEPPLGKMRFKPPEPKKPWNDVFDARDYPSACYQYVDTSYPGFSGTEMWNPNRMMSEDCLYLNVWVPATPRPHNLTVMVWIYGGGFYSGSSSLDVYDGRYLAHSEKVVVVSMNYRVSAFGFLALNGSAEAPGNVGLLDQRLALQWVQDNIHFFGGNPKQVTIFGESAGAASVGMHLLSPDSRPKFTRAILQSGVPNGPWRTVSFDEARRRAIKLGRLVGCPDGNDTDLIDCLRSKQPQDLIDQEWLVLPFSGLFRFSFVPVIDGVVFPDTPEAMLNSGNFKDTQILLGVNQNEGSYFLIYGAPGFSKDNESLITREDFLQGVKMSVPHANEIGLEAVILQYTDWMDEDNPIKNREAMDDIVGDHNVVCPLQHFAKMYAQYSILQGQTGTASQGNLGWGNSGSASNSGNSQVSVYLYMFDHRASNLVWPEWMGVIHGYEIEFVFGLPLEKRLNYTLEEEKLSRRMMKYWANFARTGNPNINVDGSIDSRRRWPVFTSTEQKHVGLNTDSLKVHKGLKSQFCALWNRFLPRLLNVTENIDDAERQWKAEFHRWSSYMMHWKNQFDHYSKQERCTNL
T1 sequence (P81908 whole entry): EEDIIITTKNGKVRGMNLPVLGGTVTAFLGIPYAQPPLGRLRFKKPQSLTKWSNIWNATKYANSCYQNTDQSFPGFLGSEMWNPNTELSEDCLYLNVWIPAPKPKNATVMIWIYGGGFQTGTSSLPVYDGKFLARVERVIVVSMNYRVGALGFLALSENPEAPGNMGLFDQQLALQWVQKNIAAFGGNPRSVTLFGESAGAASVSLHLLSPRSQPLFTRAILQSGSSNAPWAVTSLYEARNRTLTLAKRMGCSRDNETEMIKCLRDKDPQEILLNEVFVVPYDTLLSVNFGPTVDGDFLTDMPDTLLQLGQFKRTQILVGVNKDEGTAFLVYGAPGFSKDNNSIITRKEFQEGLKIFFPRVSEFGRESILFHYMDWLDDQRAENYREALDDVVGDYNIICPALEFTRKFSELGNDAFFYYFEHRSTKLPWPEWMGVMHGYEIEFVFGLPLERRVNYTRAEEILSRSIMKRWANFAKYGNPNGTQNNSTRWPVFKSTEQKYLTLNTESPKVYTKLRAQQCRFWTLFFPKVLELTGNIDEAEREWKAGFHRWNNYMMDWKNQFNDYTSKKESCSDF

SMILES | IC50 (Cholinesterase [1]) | other results
CC(C)(C)CC(C)(C)NC(=O)C1(N2CCC2=O)C(=O)Nc2ccccc21 (stereo not drawn) | 42 µM | 
CC(C)(C)NC(=O)C1(N2CCC2=O)C(=O)Nc2ccc([N+](=O)[O-])cc21 (stereo not drawn) | > 100 µM | 
CC(C)(C)NC(=O)C1(N2CCCC2=O)C(=O)N(c2ccccc2)c2ccccc21 (stereo not drawn) | 6.2 µM | Ki (Acetylcholinesterase [2]): 6.1 µM; Ki (Cholinesterase [3]): 18 µM
C#CCN1C(=O)C(C(=O)NC(C)(C)C)(N2CCC2=O)c2ccccc21 (stereo not drawn) |  | inhibition at 1 µM [4]: 7.4%; inhibition at 1 µM [5]: 5.9%
CC(C)(C)NC(=O)C1(N2CCC2=O)C(=O)N(c2ccccc2)c2ccccc21 (stereo not drawn) | 22 µM | 
CC(C)(C)NC(=O)C1(N2CCCC2=O)C(=O)Nc2ccc(Br)cc21 (stereo not drawn) | > 100 µM | 
C[C@H](NCc1ccc(OCc2cccc(F)c2)cc1)C(N)=O [SAFINAMIDE] |  | inhibition at 1 µM [5]: -1.6%
O=C1CCCN1C1(C(=O)NC2CCCCC2)C(=O)Nc2ccccc21 (stereo not drawn) | 44 µM | 
CC(C)(C)CC(C)(C)NC(=O)C1(N2CCC2=O)C(=O)N(Cc2ccccc2)c2ccccc21 (stereo not drawn) | 1.8 µM | IC50 (Acetylcholinesterase [6]): > 100 µM; Ki (Acetylcholinesterase [2]): 1.8 µM; Ki (Cholinesterase [3]): 4.8 µM
C#CCN(C)CCCOc1ccc(Cl)cc1Cl [CLORGILINE] |  | inhibition at 1 µM [5]: 100%
C#CCN1C(=O)C(C(=O)NCc2ccccc2)(N2CCC2=O)c2ccccc21 (stereo not drawn) | > 100 µM | inhibition at 1 µM [4]: 7.6%; inhibition at 1 µM [5]: 8.9%
CC(C)(C)NC(=O)C1(N2CCCC2=O)C(=O)Nc2ccc([N+](=O)[O-])cc21 (stereo not drawn) | 94 µM | IC50 (Acetylcholinesterase [6]): 45 µM
Cc1cc(C)c2c(c1)C(C(=O)NC(C)(C)C)(N1CCCC1=O)C(=O)N2 (stereo not drawn) | > 100 µM | 
CC(C)(C)NC(=O)C1(N2CCC2=O)C(=O)N(Cc2ccccc2)c2ccccc21 (stereo not drawn) | 51 µM | 
CC(C)(C)NC(=O)C1(N2CCCC2=O)C(=O)Nc2ccccc21 (stereo not drawn) | 54 µM | 
CC(C)(C)NC(=O)C1(N2CCC2=O)C(=O)Nc2ccccc21 (stereo not drawn) | > 100 µM | 
CC(C)(C)NC(=O)C1(N2CCCC2=O)C(=O)Nc2ccc(I)cc21 (stereo not drawn) | 68 µM | 
CC(C)(C)NC(=O)C1(N2CCC2=O)C(=O)Nc2ccc(I)cc21 (stereo not drawn) | 80 µM | 
O=C1CCN1C1(C(=O)NCc2ccccc2)C(=O)Nc2ccccc21 (stereo not drawn) | > 100 µM | IC50 (Acetylcholinesterase [6]): > 100 µM
O=C1CCCN1C1(C(=O)NCc2ccccc2)C(=O)Nc2ccccc21 (stereo not drawn) | 71 µM | 
CC(C)(C)CC(C)(C)NC(=O)C1(N2CCCC2=O)C(=O)Nc2ccccc21 (stereo not drawn) | 8.4 µM | IC50 (Acetylcholinesterase [6]): > 100 µM; Ki (Acetylcholinesterase [2]): 7.4 µM; Ki (Cholinesterase [3]): 15 µM
CN1C(=O)C(C(=O)NC(C)(C)C)(N2CCCC2=O)c2ccccc21 (stereo not drawn) | > 100 µM | 
CC(C)(C)NC(=O)C1(N2CCCC2=O)C(=O)N(Cc2ccccc2)c2ccccc21 (stereo not drawn) | 32 µM | 
CN1C(=O)C(C(=O)NC(C)(C)CC(C)(C)C)(N2CCCC2=O)c2ccccc21 (stereo not drawn) | 18 µM | 
CC(C)(C)NC(=O)C1(N2CCC2=O)C(=O)Nc2ccc(Br)cc21 (stereo not drawn) | > 100 µM | 
CC(C)(C)NC(=O)C1(N2CCC2=O)C(=O)Nc2c(C(F)(F)F)cccc21 (stereo not drawn) | > 100 µM | 
C#CCN1C(=O)C(C(=O)NCc2ccccc2)(N2CCCC2=O)c2ccccc21 (stereo not drawn) | > 100 µM | inhibition at 1 µM [4]: 6.1%; inhibition at 1 µM [5]: 13.2%
Cc1cc(C)c2c(c1)C(C(=O)NC(C)(C)C)(N1CCC1=O)C(=O)N2 (stereo not drawn) | 57 µM | 
